Measurements reported in patent publication US10973763B2, “Inhalable pharmaceutical compositions” (Berg LLC, priority 2011, dated 2021).
Where “and” joins values, the source holds several entries; their conditions need not be identical. Identical values can stand only once.

Key:
mice = test: Survival and health of mice after nebulization event; type: in vivo; settings: 48 hours after the end of the nebulization event
Experimental: (§1) Animals were caged in groups of 4 and maintained on a normal rodent chow diet with free access to water. Prior to dosing, CD-1® IGS ICR mice (Charles River Laboratories International, Inc., Wilmington, Mass., USA) were individually acclimatized for approximately 10 minutes per day for 3 days into restraint tubes, restricted by an anterior nose insert and a posterior holder. The dosing apparatus was placed inside a fume hood to collect escaping aerosol containing drug. To avoid influence from the airflow provided by the fume hood, an erlenmeyer container was placed at the end of the tubing system as a buffer. The airflow rate was set to 1 L/min to ensure proper drug aerosolization into the nose-only chamber (internal volume: 230 mL; diameter: 3.8 cm; length: 20.3 cm) using an Aeroneb Pro® vibrating-mesh nebulizer (Aerogen, Galway, Ireland). Following preparation, all formulations (saline control, DMPC, DPPC, and DSPC) were dosed for 15 minutes to mice weighing from 23 to 33 g each, at time of dosing. Each single-dose studied group consisted of thirty-six male animals. At each time point (0.5, 1, 3, 8, 24, and 48 hours after the end of the aerosolization event) six animals randomly selected from different dosing events of the same formulation were sacrificed by narcosis with carbon dioxide. […]

[1] = CoQ10 level in lung tissue after nose-only aerosol dosing; type: in vivo, mice
Experimental: as §1, with “dioxide. As part of the collection process, blood was withdrawn by cardiac puncture, lungs were harvested, and a nasal wash was performed.” for “dioxide.”
For each experiment, CoQ10 levels were determined after liquid extraction using liquid chromatography coupled with tandem mass spectrometry (LC-MS/MS). […]
Samples were tested for normality using the Shapiro Wilk test (p<0.05) and outliers were excluded from data analysis. Pharmacokinetic parameters were determined using Microsoft Office Excel 2007 software (Redmond, Wash.) with the add-in program PKSolver. […] At each time point, lung tissue samples were analyzed for statistical differences among different groups with One-Way ANOVA for significance (p<0.05). […]

IL-12 = test: Inflammatory response: BAL supernatant ELISA for IL-12; type: in vivo, mice; settings: pulmonary administration
Experimental: The inflammatory response to the administration of hydrophobic bioactive agents (e.g., as discussed in connection with Example 1-3 above) was measured. Surgery is performed on sacrificed mice to expose the pleural cavity and trachea at the throat. […] An aliquot (about 0.75 mL) of phosphate buffered saline is instilled through the cannula into the lungs and removed to wash the bronchial and alveolar surfaces. This process is repeated for a total of three washes. The phosphate buffered saline containing cells is placed into centrifuge vials and centrifuged at about 3000 rpm (MiniSpin Plus, Eppendorf International, Hamburg, Del.). The supernatant is removed leaving the collected cells in the pellet. The supernatant from the BAL (Bronchoalveolar Lavage) is analyzed by enzyme-linked immunosorbent assay (ELISA) for IL-12 elevation (n=2 per sample tested).

[2] = Particle size distribution by laser diffraction (LD); type: physicochemical; settings: bulk CoQ10 powder
Experimental: Bulk CoQ10 powder was dispersed in 20% (v/v) 1,3-propanediol in deionized water for analysis of particle size distribution. This dispersed sample was then added to a small cell apparatus in a Malvern Mastersizer S® instrument (Malvern Instruments, Worcestershire, UK) equipped with a 300 mm lens until 5-10% obscuration was attained. The internal phase and dispersant refractive indexes were 1.45 and 1.33, respectively.
Particle size distribution testing of the dispersed formulations was performed with LD using a wet sample dispersion unit stirring at 1,000 rpm coupled to a Malvern Spraytec® (Malvern Instruments, Worcestershire, UK) equipped with a 300 mm lens. The dispersed formulations were added to distilled water (dispersant) until approximately 5% laser obscuration was attained. The internal phase and dispersant refractive indexes were set as 1.45 and 1.33, respectively. […] Span is a measurement of particle size distribution calculated as [Dv(90)−[…]]/Dv(50)]. […]
Particle size distribution testing of the dispersed formulations was performed with LD using a wet sample dispersion unit stirring at 1,000 rpm coupled to a Malvern Spraytec® (Malvern Instruments, Worcestershire, UK) equipped with a 300 mm lens. […] Span is the measurement of particle size distribution calculated as [Dv(90)−Dv(10)]/Dv(50)]. […]

[3] = Drug loading suitable for continuous nebulization (Example 5); type: physicochemical; settings: 15-minute nebulization, Aeroneb Pro, DMPC 2.5% w/w
Experimental: Formulations were prepared based upon the general methods discussed in connection with Examples 1 and 2. For this study, specific dispersions were prepared with 50 microfluidization discrete passes using 2.5% w/w of dimyristoyl phosphatidylcholine (DMPC) and 7.5%, 7.0%, 6.0%, 5.0%, or 4.0% w/w of CoQ10. The dispersions were then aerosolized within 24 hour using an Aeroneb Pro® nebulizer for 15 minute aerosolization event. The aerosolization profile was monitored via analysis of Total Aerosol Output (TAO) and using laser diffraction with a Malvern Spraytec® coupled with an inhalation cell as described above.

[4] = previous studies, same nebulizer

In the case of COC1=C(OC)C(=O)C(C/C=C(\C)CC/C=C(\C)CC/C=C(\C)CC/C=C(\C)CC/C=C(\C)CC/C=C(\C)CC/C=C(\C)CC/C=C(\C)CC/C=C(\C)CCC=C(C)C)=C(C)C1=O [CoQ10, Coenzyme Q10], the “survival and health of mice” value (mice) is reported as “all mice were alive and presenting healthy signs”, the “time CoQ10 stays in the lungs at relatively high concentrations” value ([1]; after 15-minute aerosol dosing) is reported as “up to 48 hours” and the “lung Cmax relative to cyclosporine A dispersions” value [1, 4] is reported as at most 75 fold. The “lung Cmax relative to itraconazole dispersions” value [1, 4] was at most 165 fold, the “IL-12 levels in BAL supernatant” value (IL-12; ELISA) was “not associated with a rise in IL-12 levels” and the lung inflammation (IL-12) was “does not cause lung inflammation”. The “Dv(50) / particle size” value [2] was 30 μm and 29.87 μm and the “maximum nominal drug loading without intermittent mist” value [3] was 4 % w/w.
